We go through 32 compounds from ChEMBL document CHEMBL1268896, “Development of the next generation of HIV-1 integrase inhibitors: pyrazolone as a novel inhibitor scaffold” (Bioorg Med Chem Lett, 2010).

Broadly, the IC50 is the concentration needed to halve the response being measured. Read a high IC50 as lower potency.

The target of assay [1] is T1, Human immunodeficiency virus type 1 integrase (Human immunodeficiency virus 1, UniProt Q7ZJM1). Kind of assay: Inhibition of HIV1 integrase strand transfer activity.
The target of assay [2] is T1, Human immunodeficiency virus type 1 integrase. Kind of assay: Inhibition of HIV1 integrase 3' processing activity.

Molecules are shown by their SMILES. A value given as a limit tells only on which side of the number the result lay.

T1 sequence (Q7ZJM1 whole entry): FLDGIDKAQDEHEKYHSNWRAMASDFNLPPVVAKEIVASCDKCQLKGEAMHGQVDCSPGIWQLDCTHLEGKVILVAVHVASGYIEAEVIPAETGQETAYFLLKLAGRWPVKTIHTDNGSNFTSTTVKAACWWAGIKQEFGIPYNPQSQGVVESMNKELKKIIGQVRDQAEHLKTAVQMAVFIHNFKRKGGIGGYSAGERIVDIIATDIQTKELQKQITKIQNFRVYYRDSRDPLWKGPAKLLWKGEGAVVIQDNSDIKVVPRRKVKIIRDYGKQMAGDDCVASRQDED

As for `COc1ccc(/C=C2\C(=O)N(c3ccc(I)cc3)N=C2C(F)(F)F)cc1OCc1ccc(F)cc1`, the figures for the IC50 in assay [1] and in assay [2] were 69 µM and above 100 µM, respectively.
`COc1ccc(/C=C2\C(=O)N(c3cccc(-c4ccccc4)c3)N=C2C(F)(F)F)cc1OCc1ccc(F)cc1`: the IC50 in assay [1] is 16 µM; in assay [2] it was above 100 µM.
As for `COc1ccc(/C=C2\C(=O)N(c3cccc(Br)c3)N=C2C(F)(F)F)cc1Cc1ccc(F)cc1`, the results for the IC50 in assay [1] and in assay [2] were 11 µM and 21 µM, respectively.
In the same order, the values of `O=C(O)C1=NN(c2cccc([N+](=O)[O-])c2)C(=O)/C1=C\c1ccc(OCc2ccc(F)cc2)c(O)c1` are 3 µM and 21 µM.
In the same order, the values of `COc1ccc(/C=C2\C(=O)N(c3nc4ccccc4s3)N=C2C(F)(F)F)cc1OCc1ccc(F)cc1` are 27 µM and above 100 µM.
Regarding `COc1ccc(/C=C2\C(=O)N(c3cccc(Br)c3)N=C2C)cc1OCc1ccc(F)cc1`, the IC50 in assay [1] and in assay [2] was above 100 µM each time.
Regarding `COc1ccc(/C=C2\C(=O)N(c3cc(Cl)cc(Cl)c3)N=C2C(F)(F)F)cc1OCc1ccc(F)cc1`, the IC50 in assay [1] is 12 µM; in assay [2], above 100 µM.
Take `CCC1=NN(c2cccc(Br)c2)C(=O)/C1=C\c1ccc(OC)c(OCc2ccc(F)cc2)c1`: the IC50 in assay [1] and in assay [2] was above 100 µM each time.
On to `COc1ccc(/C=C2\C(=O)N(c3ccc(NS(C)(=O)=O)cc3)N=C2C(F)(F)F)cc1OCc1ccc(F)cc1`, for which the concentration for half-maximal inhibition (IC50) in assay [1] and in assay [2] was above 100 µM throughout.
Take `COc1ccc(/C=C2\C(=O)N(c3cccc([N+](=O)[O-])c3)N=C2C(=O)O)cc1OCc1ccc(F)cc1`: the half-maximal inhibitory concentration (IC50) came out at 14 µM in assay [1] and 60 µM in assay [2].
As for `COc1ccc(/C=C2\C(=O)N(c3cccc(C(F)(F)F)c3)N=C2C(F)(F)F)cc1OCc1ccc(F)cc1`, the IC50 in assay [1] was 24 µM; in assay [2], 90 µM.
Consider `COc1ccc(/C=C2\C(=O)N(c3ccccc3)N=C2C(F)(F)F)cc1OCc1ccc(F)cc1`, for which the IC50 in assay [1] and in assay [2] was above 100 µM in each case.
Turning to `COc1ccc(/C=C2\C(=O)N(c3cccc(Br)c3)N=C2C(=O)O)cc1OCc1ccc(F)cc1`, the IC50 is 19 µM in assay [1] and 55 µM in assay [2].
As for `O=C1/C(=C\c2ccc(O)c(OCc3ccc(F)cc3)c2)C(C(F)(F)F)=NN1c1cccc(Br)c1`, the figures for the IC50 in assay [1] and in assay [2] were 22 µM and above 100 µM, respectively.
For `O=C(O)C1=NN(c2cccc([N+](=O)[O-])c2)C(=O)/C1=C\c1ccc(O)c(OCc2ccc(F)cc2)c1`, the figures for the half-maximal inhibitory concentration (IC50) in assay [1] and in assay [2] were 10 µM and 95 µM, respectively.
`COc1ccc(/C=C2\C(=O)N(c3cccc(Br)c3)N=C2C(F)(F)F)c(OC)c1OC`: the IC50 in assay [1] and in assay [2] was above 100 µM throughout.
On to `COc1ccc(/C=C2\C(=O)N(c3cccc([N+](=O)[O-])c3)N=C2C(=O)O)cc1Cc1ccc(F)cc1`, for which the IC50 came to 11 µM in assay [1] and 15 µM in assay [2].
On to `COc1ccc(/C=C2\C(=O)N(c3ccc(Br)cc3)N=C2C(F)(F)F)cc1OCc1ccc(F)cc1`, for which the IC50 in assay [1] was 25 µM; in assay [2] it was 82 µM.
For `COc1ccc(/C=C2\C(=O)N(c3cccc(Br)c3)N=C2C(F)(F)F)cc1OCc1ccc(F)cc1`, in that order: 40 µM and 83 µM.
Regarding `COc1ccc(/C=C2\C(=O)N(c3cccc(Br)c3)N=C2C(F)(F)F)cc1OCc1cccc(Cl)c1F`, the figures for the IC50 in assay [1] and in assay [2] were 30 µM and 50 µM, respectively.
Turning to `COc1ccc(/C=C2\C(=O)N(c3cccc([N+](=O)[O-])c3)N=C2C(F)(F)F)cc1OCc1ccc(F)cc1`, the IC50 in assay [1] stood at 19 µM; in assay [2], 52 µM.
As for `COc1ccc(/C=C2\C(=O)N(c3ccc(C(=O)O)cc3)N=C2C(F)(F)F)cc1OCc1ccc(F)cc1`, the IC50 is 41 µM in assay [1] and above 100 µM in assay [2].
In the case of `COc1ccc(/C=C2\C(=O)N(c3cccc(F)c3)N=C2C(F)(F)F)cc1OCc1ccc(F)cc1`, the values for the IC50 in assay [1] and in assay [2] were 60 µM and above 100 µM, respectively.
Regarding `COc1ccc(/C=C2\C(=O)N(c3cccc(Cl)c3)N=C2C(F)(F)F)cc1OCc1ccc(F)cc1`, the IC50 in assay [1] was determined as 30 µM; in assay [2], 88 µM.
In the case of `COc1ccc(/C=C2\C(=O)N(c3cccc(I)c3)N=C2C(F)(F)F)cc1OCc1ccc(F)cc1`, the IC50 in assay [1] was 35 µM; in assay [2] it was above 100 µM.
In the case of `COc1ccc(/C=C2\C(=O)N(c3cccc(C)c3)N=C2C(F)(F)F)cc1OCc1ccc(F)cc1`, the IC50 in assay [1] and in assay [2] was above 100 µM in each case.
For the compound `COc1ccc(/C=C2\C(=O)N(c3cccc(Br)c3)N=C2NC(=O)C(F)(F)F)cc1OCc1ccc(F)cc1`, the half-maximal inhibitory concentration (IC50) in assay [1] and in assay [2] was above 100 µM throughout.
With `CCC(=O)OC1=NN(c2cccc(Br)c2)C(=O)/C1=C\c1ccc(OC)c(OCc2ccc(F)cc2)c1`, the IC50 in assay [1] was 88 µM; in assay [2], above 100 µM.
As for `COc1ccc(/C=C2\C(=O)N(c3cccc(Br)c3)N=C2COC(C)=O)cc1OCc1ccc(F)cc1`, the values for the IC50 in assay [1] and in assay [2] were 57 µM and above 100 µM, respectively.
In the same order, the values of `COc1ccc(/C=C2\C(=O)N(c3cccc(Br)c3)N=C2C(F)(F)F)cc1OC` are 34 µM and 89 µM.
For `COc1cc(/C=C2\C(=O)N(c3cccc(Br)c3)N=C2C(F)(F)F)cc(OC)c1OC`, in that order: 15 µM and 61 µM.
With `COc1ccc(/C=C2\C(=O)N(c3cccc(Br)c3)N=C2OC(C)=O)cc1OCc1ccc(F)cc1`, the concentration for half-maximal inhibition (IC50) in assay [1] is 100 µM; in assay [2] it was above 100 µM.
